# Source: the supplement of paper PMC11061612
# What was measured:
# Experiment in all cases: combination Emax (second highest fraction inhibited in the dose matrix, 72 h); higher = more inhibition; extreme values may be limits of the assay
# 42-MG-BA (Glioblastoma) = tested on: 42-MG-BA (Glioblastoma)
# Outline: (§1)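 After 24 hours at 37°C and 5% CO2 in 1536-well plates, cells in DMEM/F12 or RPMI plus 10% FBS received two-drug dose matrices for 72 hours. Viability came from CellTiter-Glo 2.0 luminescence and was scaled as inhibition, anchored at 0 by vehicle wells and at 1 by blank wells. Combination Emax is taken as the second-highest inhibition in the matrix, and Bliss excess as the observed combination effect less EA + EB − EA·EB, with EA and EB the single-agent effects.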
# AGS (Gastric Carcinoma) = tested on: AGS (Gastric Carcinoma)
# Outline: as §1
# [1] = tested on: CAL-148 (Breast Carcinoma)
# Outline: as §1
# [2] = tested on: CCRF-CEM (T-Lymphoblastic Leukemia)
# Outline: as §1
# [3] = tested on: COLO-205 (Colorectal Carcinoma)
# Outline: as §1
# [4] = tested on: DoTc2-4510 (Cervical Carcinoma)
# Outline: as §1
# ES4 (Ewing's Sarcoma) = tested on: ES4 (Ewing's Sarcoma)
# Outline: as §1
# HOS (Osteosarcoma) = tested on: HOS (Osteosarcoma)
# Outline: as §1
# [5] = tested on: HT-1376 (Bladder Carcinoma)
# Outline: as §1
# [6] = tested on: Hs-578-T (Breast Carcinoma)
# Outline: as §1
# [7] = tested on: HuP-T4 (Pancreatic Carcinoma)
# Outline: as §1
# [8] = tested on: KYSE-520 (Esophageal Squamous Cell Carcinoma)
# Outline: as §1
# [9] = tested on: LB831-BLC (Bladder Carcinoma)
# Outline: as §1
# [10] = tested on: LS-180 (Colorectal Carcinoma)
# Outline: as §1
# [11] = tested on: LU-135 (Small Cell Lung Carcinoma)
# Outline: as §1
# NOS-1 (Osteosarcoma) = tested on: NOS-1 (Osteosarcoma)
# Outline: as §1
# [12] = tested on: Ramos-2G6-4C10 (Burkitt's Lymphoma)
# Outline: as §1
# [13] = tested on: SNU-5 (Gastric Carcinoma)
# Outline: as §1
# [14] = tested on: TCCSUP (Bladder Carcinoma)
# Outline: as §1
# [15] = tested on: TE-15 (Esophageal Squamous Cell Carcinoma)
# Outline: as §1
Compound,combination Emax (42-MG-BA (Glioblastoma)),combination Emax (AGS (Gastric Carcinoma)),combination Emax [1],combination Emax [2],combination Emax [3],combination Emax [4],combination Emax (ES4 (Ewing's Sarcoma)),combination Emax (HOS (Osteosarcoma)),combination Emax [5],combination Emax [6],combination Emax [7],combination Emax [8],combination Emax [9],combination Emax [10],combination Emax [11],combination Emax (NOS-1 (Osteosarcoma)),combination Emax [12],combination Emax [13],combination Emax [14],combination Emax [15]
"COc1cccc(OCCCN)c1-c1cc(Nc2cnc(C#N)cn2)n[nH]1 [Prexasertib] + CN(C)CCCOc1ccc(-c2ccc3ncc4c(c3c2)n(C2CCOCC2)c(=O)n4C)cn1 [AZD0156] (first compound max 1 µM, 7x7, partner max 1 µM)",0.937,0.537,0.642,1,0.673,0.89,0.912,0.854,0.471,0.942,0.84,0.725,0.413,0.789,0.554,0.332,1,0.926,0.689,0.831
"COc1cccc(OCCCN)c1-c1cc(Nc2cnc(C#N)cn2)n[nH]1 [Prexasertib] + C[C@@H]1COCCN1C2=NC(=NC(=C2)C3(CC3)[S@](=N)(=O)C)C4=C5C=CNC5=NC=C4 [AZD6738] (first compound max 1 µM, 7x7, partner max 10 µM)",0.904,0.663,0.895,1,0.565,0.88,0.879,0.902,0.503,0.912,0.808,0.728,0.363,0.819,0.634,0.381,1,0.975,0.712,0.874
"COc1cccc(OCCCN)c1-c1cc(Nc2cnc(C#N)cn2)n[nH]1 [Prexasertib] + Cc1cc2ncnn2cc1Nc1ncc2c(n1)n(C1CCOCC1)c(=O)n2C [AZD7648] (first compound max 1 µM, 7x7, partner max 10 µM)",0.908,0.48,0.734,1,0.675,0.86,0.93,0.826,0.571,0.925,0.839,0.728,0.314,0.789,0.584,0.321,1,0.983,0.704,0.831
"COc1cccc(OCCCN)c1-c1cc(Nc2cnc(C#N)cn2)n[nH]1 [Prexasertib] + O=C(c1cc(Cc2n[nH]c(=O)c3ccccc23)ccc1F)N1CCN(C(=O)C2CC2)CC1 [Olaparib] (first compound max 1 µM, 7x7, partner max 10 µM)",0.908,0.426,0.696,1,0.573,0.875,0.887,0.854,0.479,0.925,0.851,0.548,0.448,0.724,0.493,0.373,1,0.968,0.731,0.842
"COc1cc2c(cc1OCCCCCOc1cc3c(cc1OC)C(=O)N1C=C(C)C[C@H]1C=N3)N=C[C@@H]1CC(C)=CN1C2=O [SG3199] + O=C(c1cc(Cc2n[nH]c(=O)c3ccccc23)ccc1F)N1CCN(C(=O)C2CC2)CC1 [Olaparib] (first compound max 0.001 µM, 7x7, partner max 10 µM)",0.247,0.248,0.211,0.257,0.0813,0.321,0.566,0.105,0.121,0.256,0.0469,0.133,0.159,0.181,0.354,0.155,0,0.129,0.162,0.166
"CCc1c2c(nc3ccc(O)cc13)-c1cc3c(c(=O)n1C2)COC(=O)[C@]3(O)CC [SN-38] + CN(C)CCCOc1ccc(-c2ccc3ncc4c(c3c2)n(C2CCOCC2)c(=O)n4C)cn1 [AZD0156] (first compound max 0.3 µM, 7x7, partner max 1 µM)",1,0.814,0.912,1,0.509,0.972,0.947,0.893,0.118,0.635,0.96,0.284,0.723,0.713,0.728,0.0879,0.98,0.945,0.743,0.819
"C[C@@H](c1ccc2nccn2c1)n1nnc2ncc(-c3cnn(C)c3)nc21 [Savolitinib] + CC1(C)CCC(CN2CCN(c3ccc(C(=O)NS(=O)(=O)c4ccc(NCC5CCOCC5)c([N+](=O)[O-])c4)c(Oc4cnc5[nH]ccc5c4)c3)CC2)=C(c2ccc(Cl)cc2)C1 [Venetoclax] (first compound max 1 µM, 7x7, partner max 1 µM)",0.166,0.0926,0.143,0.124,0.0209,0.182,0.113,0.205,0.103,0.312,0.0793,0.149,0.179,0.205,0.114,0.0631,0.169,0.847,0.143,0.287
"C[C@@H](c1ccc2nccn2c1)n1nnc2ncc(-c3cnn(C)c3)nc21 [Savolitinib] + Cc1c2c(nn1C)CSCc1cc(n(C)n1)CSc1cc(c3ccccc3c1)OCCCc1c(C(=O)O)n(C)c3c-2c(Cl)ccc13 [AZD5991] (first compound max 1 µM, 7x7, partner max 1 µM)",0.192,0.241,0.275,0.151,0.0758,0.205,0.117,0.278,0.179,0.47,0.265,0.189,0.232,0.199,0.194,0.742,0.975,0.937,0.252,0.282
"Cn1cnc2c(F)c(Nc3ccc(Br)cc3Cl)c(C(=O)NOCCO)cc21 [Selumetinib] + C=CCn1c(=O)c2cnc(Nc3ccc(N4CCN(C)CC4)cc3)nc2n1-c1cccc(C(C)(C)O)n1 [AZD1775] (first compound max 10 µM, partner max 1 µM)",0.282,0.932,0.849,0.996,0.85,0.251,0.433,0.222,0.362,0.577,0.396,0.595,0.406,0.604,0.583,0.818,0.997,0.638,0.429,0.74
"Cn1cnc2c(F)c(Nc3ccc(Br)cc3Cl)c(C(=O)NOCCO)cc21 [Selumetinib] + CC(C)n1c(=O)n(C)c2cnc3cc(F)c(-c4ccc(OCCCN5CCCCC5)nc4)cc3c21 [AZD1390] (first compound max 10 µM, 7x7, partner max 0.3 µM)",0.185,0.842,0.158,0.108,0.705,0.144,0.0668,0.11,0.157,0.369,0.293,0.382,0.214,0.573,0.136,0.257,0.137,0.54,0.109,0.409
"Cn1cnc2c(F)c(Nc3ccc(Br)cc3Cl)c(C(=O)NOCCO)cc21 [Selumetinib] + CCN(CCO)CCCOc1ccc2c(Nc3cc(CC(=O)Nc4cccc(F)c4)[nH]n3)ncnc2c1 [AZD2811] (first compound max 10 µM, 7x7, partner max 1 µM)",0.447,0.954,0.927,0.968,0.983,0.224,0.145,0.198,0.198,0.491,0.421,0.428,0.226,0.623,0.933,0.313,0.117,0.569,0.217,0.492
"Cn1cnc2c(F)c(Nc3ccc(Br)cc3Cl)c(C(=O)NOCCO)cc21 [Selumetinib] + C[C@@H]1COCCN1C2=NC(=NC(=C2)C3(CC3)[S@](=N)(=O)C)C4=C5C=CNC5=NC=C4 [AZD6738] (first compound max 10 µM, 7x7, partner max 10 µM)",0.53,0.986,0.825,0.963,0.76,0.392,0.864,0.529,0.467,0.628,0.568,0.534,0.278,0.76,0.753,0.784,0.847,0.961,0.546,0.834
"CC(=O)Nc1cccc(-n2c(=O)n(C3CC3)c(=O)c3c(Nc4ccc(I)cc4F)n(C)c(=O)c(C)c32)c1 [Trametinib] + Cc1nc(-c2cn3c(n2)-c2ccc(-c4cnn(C(C)(C)C(N)=O)c4)cc2OCC3)n(C(C)C)n1 [Taselisib] (first compound max 1 µM, 7x7, partner max 10 µM)",0.971,1,0.986,0.517,0.946,0.841,0.715,0.43,0.339,0.919,0.832,0.846,0.77,0.903,0.514,0.928,0.121,0.829,0.65,0.664
